Test results: patent publication US8148392B2, “2-indolyl imidazo [4,5-d] phenanthroline derivatives and their use in the treatment of cancer” (Lorus Therapeutics Inc., priority 2005, dated 2012)
Entries after “also recorded” stand apart in the source; their conditions may differ. Read-outs that look alike come from different tables or passages of the source.

Legend:
[1] = test system: normal cell lines PrEC, HMEC, WI38 and cancer cell lines DU145, MDA-MB-435, HT-29; test: Cancer cell selectivity, IC90 in normal versus cancer cell lines (XTT); format: cell-based, human; details: average IC90 of all normal / average IC90 of all cancer cell lines, 6 to 7 days
Excerpt: An exemplary method of assessing the differential sensitivity between normal and cancer cells for a compound has been described by Vassilev et al. (Anti-Cancer Drug Design (2001) 16:7). This method involves the comparison of IC90 values, i.e. the molar concentration of a test compound required to cause 90% growth inhibition of exponentially growing cells. Thus, the IC90 values for candidate compounds can be evaluated in various cancer cell lines (such as those outlined above) and normal cells (such as HUVEC and/or WI38 cells) and compared. IC90 values can be measured using a variety of standard techniques as known in the art. Cancer cell selectivity is calculated as a ratio between the average IC90 for all normal cell lines and the average IC90 for all cancer cell lines. Compounds with an IC90 ratio (normal/cancer) of >4 are considered to be selective for cancer cells (L. T. Vassilev et al., Anti-cancer Drug Design, 2001, 16: 7-17).
The normal cells lines used were PrEC (prostate), HMEC (breast), and WI38 (lung fibroblast) cell lines and the cancer cells lines were DU145 (prostate), MDA-MB-435 (breast), HT-29 (colon). IC90 values were also determined for the controls doxorubicin and etoposide. The cells were cultured as generally described in Example 13. Various concentrations of the compounds were incubated with the cells for 6 to 7 days, and the number of proliferating cells was measured using the XTT assay. Cancer cell selectivity was calculated as a ratio between the average IC90 for all normal and the average IC90 for all cancer cell lines.

[2] = test system: HT-29 cells; test: Effect of exogenous metals on growth inhibition of HT-29 cells (XTT); format: cell-based, human; details: HT-29, 5 days
Protocol: To determine whether metal chelation is involved in the growth inhibitory activity of compounds of Formula I, exogenous metals (ZnCl2, FeCl2.4H2O, FeCl3.4H2O, MgCl2, at 100 μM) were incubated with HT-29 cells, simultaneously with control vehicle DMSO, compound 3 (5 μM), or compound 13 (25 μM), for 5 days. […] Growth inhibition by compound 13 is predicted to occur through a different mechanism than compound 3.
To determine whether chelation of copper is involved in the growth inhibitory activity of compounds of Formula I, HT-29 cells were incubated with up to 5 μM of compound 3, in the presence or absence of 25 μM CuSO4.5H20 for 5 days.
To determine whether metal chelation is involved in the growth inhibitory activity of compound 3, various concentrations of exogenous metals were incubated with HT-29 cells, simultaneously with various concentrations of compound 3, for 5 days. The exogenous metals tested were: ZnCl2 (zinc), CuSO4.5H20 (copper), FeCl2 (iron II), FeCl3.4H20 (iron III), MgCl2 (magnesium), and CaCl2.2H20 (calcium). HT-29 cells (4×10^3/well) in 100 μL volume of the growth medium were seeded in 96-well cell culture plates and incubated overnight at 37° C. The medium was removed and replaced with a total volume of 100 μl growth medium containing concentrations of metal ions as shown in FIG. 5 with compound 3 or 0.1% DMSO vehicle control. After incubation of the cells at 37° C. for 5 days, cell viability was quantitated using the XTT (sodium 3′-[1-(phenylamino-carbonyl)-3,4-tetrazolium}-bis (4-methoxy-6-nitro) benzene sulfonic acid hydrate) calorimetric assay (Roche Applied Science, Penzberg, Germany). XTT labeling reagent (1 mg/mL) was mixed with electron-coupling reagent, following the manufacturer's instructions, and 50 μl of the mixture was added directly to the cells cultured in 100 μl growth medium. The plates were further incubated at 37° C. for 4 hours and the absorbance of each well was measured by a multi-well spectrophotometer (Bio-Tek Instruments Inc.) at 460 nm. The data were adjusted relative to the blank, and were expressed as % of cell growth compared to the DMSO control.
To determine the ability of compounds 5 and 7 to chelate metals in cells, exogenous metals were added to HT-29 cells, simultaneously with various concentrations of compounds 5 and 7. Briefly, HT-29 cells were treated with various concentrations compounds 5 and 7, plus or minus copper (25 μM CuSO4.5H20) or zinc (100 μM of ZnCl2), for 5 days. Cell viability was determined by XTT assay. The effects of copper and zinc on growth inhibition of HT-29 cells are shown in FIG. 6A for compound 5 and in FIG. 6B for compound 7.
Effect of metal ion supplements on compound 3-mediated cell growth inhibition of HT-29 cells was examined by XTT cell proliferation assay.

[3] = test system: supercoiled plasmid DNA; test: In vitro DNA cleavage assay; format: biochemical; details: 25 μM compound, 10 μM CuSO4, 100 μM ascorbic acid, 37° C., 30 minutes
Protocol: Compound 3 was tested for its ability to cleave plasmid DNA in vitro in the presence of copper and the reducing agent ascorbic acid. Experiments were performed in a total of 20 μl, containing 10 mM NaH2PO4/Na2HPO4 buffer (pH 6.7), 1 μg of supercoiled plasmid DNA, 100 μM ascorbic acid, 25 μM drug compound (or vehicle), and 10 μM of CuSO4.5H20. The reaction mixture was incubated at 37° C. for 30 minutes, and 1 μl of 0.1 M EDTA was added to terminate the reaction. DNA loading buffer was added, and reactions were run at 80V for 80 minutes on a 1% agarose gel containing ethidium bromide.
To determine whether ions other than copper could suffice, DNA cleavage reactions were also carried out in the presence of zinc or iron. Reactions were performed as above, in the presence of 25 μM of CuSO4.5H20, ZnCl2, or FeCl2.4H20. […] Note that copper alone in the presence of ascorbic acid can shift the ratio of supercoiled DNA to open circular DNA.
To determine the ratios of compound to copper at which compound 3 was effective, reactions were performed as in FIG. 22A. The ratios of compound 3 to copper of 3:1, 2.5:1, 2:1, 1.5:1, and 1:1, as shown in FIG. 23 were achieved by maintaining the concentration of Cu constant at 10 μM, and varying the concentration of compound 3. The ratios of compound 3 to Cu of 1:1.5, 1:2, 1:2.5, and 1:3, were achieved by maintaining the concentration of compound 3 constant at 10 μM, and varying the concentration of copper.
Other compounds of Formula I, compounds 5, 7, 9 and 13 were also tested for their ability to cleave DNA at a ratio of 2.5:1 to copper (FIG. 23). Ratios of compound 3:copper as indicated, plus concentrations of copper in the absence of compound 3 were used in the DNA cleavage assay as described above.

[4] = test system: human colon carcinoma HT-29 cells; test: XTT cell proliferation assay, HT-29; format: cell-based; details: Homo sapiens, HT-29, XTT, read-out: IC50
Protocol: The ability of compounds of Formula I to inhibit the proliferation of human colon carcinoma HT-29 cells was tested as follows. HT-29 colon carcinoma cells used in this example and subsequent examples were maintained as a monolayer in a growth medium; McCoy's 5A modified medium (Sigma, St. Louis, Mo.), supplemented with 2 mM L-glutamine (Gibco, Grand Island, N.Y.), 10% fetal bovine serum (FBS) (Multicell, WISENT Inc. St-Bruno, QC), antibiotic-antimycotic (Multicell), at 37° C. in a 5% CO2-humidified incubator. Cells were transferred onto 150 mm tissue culture plates and grown until sub-confluency (70-80%) prior to their use. The in vitro antiproliferative activity of compounds was evaluated by incubating the cells with varying concentrations of the compounds as shown in Table 1 for 6-7 days. The efficacy of these compounds in this cell proliferation assay was measured based in the ability of live cells to reduce the tetrazolium salt XTT to orange colored compounds of formazan (XTT cell proliferation kit II, Roche Applied Science, Montreal, QC).
The ability of compounds of Formula I to inhibit the proliferation of human colon carcinoma HT-29 cells was tested as described above in Example 13.
Cell growth inhibition IC50 (μM) by compounds of Formula I was tested on various cancer cell types by XTT cell proliferation assay. The growth inhibitory effects of the compounds of Formula I as shown below for the melanoma cell line SK-MEL-2 were reproducible by Lorus Therapeutics Inc.

[5] = test system: human lung NCI-H460 cells; test: Large-cell lung carcinoma NCI-H460 xenograft model, tumour growth; format: in vivo, CD-1 female nude mice; details: Lutrol (i.p.), lipid-based (i.v.) or water-based (i.p.) formulations
Protocol: The ability of compounds of Formula I to inhibit large-cell lung tumour growth in vivo was tested by determining the efficacy of compound 3 in a xenograft model as described below. Compound 3 was tested as a lipid-based formulation having the following composition: distearoylphosphatidylethanolamine-polyethylene glycol 2000 (DSPE-PEG/5% mole) and egg phosphatidylcoline (ePC/95% mole). The formulation was prepared as follows: Stock solutions of compound 3 and lipid (ePC and DSPE-PEG) were prepared in DMF. Specific volumes of the stock solutions of compound 3 and lipid were then mixed in order to achieve a final lipid concentration of 25 mg/mL (ePC:DSPE-PEG=95:5 (mol %) and a compound 3 to total lipid ratio of 1:10 (w/w). The mixture was stirred for four hours, thoroughly dried under nitrogen and left overnight under vacuum. HEPES buffer saline (HBS 0.01 M, pH=7.4) warmed to 60° C. was then added in order to rehydrate the dried film. The solutions were vortexed, stirred for 48 hours at room temperature and sonicated for two and half hours. The formulation was then centrifuged at 1000 rpm for 5 minutes to remove any free compound 3.
CD-1 female nude mice (6-7 weeks, 7 mice per treatment group) were injected […] with human lung NCI-H460 cells (3×10^6 cells in 0.1 ml PBS) subcutaneously. Treatment of the mice with vehicle or compound 3 was initiated 5 days post-inoculation (size of tumours=20-40 mm^3) for 7-day cycles of five days followed by a 2 day break for the duration of the experiment (35 days). Mice were treated with 80 mg/kg/d for the first week followed by 40 mg/kg/d until the end of the experiment. The size of the tumours was measured over the course of the experiment using calipers, and the weight of the tumours was measured after the animals were sacrificed.
The ability of compounds 3, 5, and 7 to inhibit large-cell lung carcinoma cell growth in vivo was tested in the mouse xenograft model as described in Example 27. The compounds were tested as Lutrol formulations (administered i.p.), lipid-based formulations micelles (administered i.v.), or water-based formulations (administered i.p.). The vehicle controls included Lutrol control (administered i.p.), lipid micelle control (administered i.v.), and water control (administered i.p.). Lutrol formulations contained 15% Lutrol and 10% DMSO. The composition of the lipid-based formulations and preparation of same was as described in Example 27 above.

[6] = format: in vivo; details: i.p. twice per day for 1 week
Protocol: To test the sub-acute toxicity of the compounds of Formula I, female mice were injected with the compounds and toxicity was evaluated based on mortality, changes in behaviour, appearance and weight. Briefly, ICR normal female mice (5-6 weeks old; n=33) weighing about 0.020 kg in body weight, were injected with various compounds at 100 mg/kg and 50 mg/kg or with the vehicle alone (Lutrol (M68, micronized)). Groups of 3 ICR female mice were injected with one intra-peritoneal (i.p.) injection of 250 μl of each compound at 4.0 mg/ml twice per day (100 mg/kg) for 1 week (Group I); or with one intra-peritoneal (i.p.) injection of 250 μl of each compound at 2.0 mg/ml twice per day (50 mg/kg) for 1 week (Group II), or with one intra-peritoneal (i.p.) injection of 250 μl of lutrol vehicle control twice per day for 1 week (Control Group).
The compounds to be tested were prepared to provide enough for one week at concentrations of 4.0 mg/ml and 2.0 mg/ml. Briefly, 50 mg of each compound was dissolved in 1.25 ml of 100% DMSO and diluted with 6.25 ml of Lutrol (30% in water) and 5 ml water, to prepare a solution of 4 mg/ml compound in 15% Lutrol in water. Next, 4 ml of each prepared solution was further diluted with 4 ml of 15% Lutrol in water to provide the 2.0 mg/ml solution of each compound. For the vehicle control solution, 8 ml of 15% Lutrol in water was prepared. Compounds at concentrations of 4.0 mg/ml and 2.0 mg/ml and the vehicle control were administered as described above.

Row | SMILES | Normal/cancer IC90 ratio [1] | cleavage of plasmid DNA [3] | IC50 ([4]; 6-7 days, Table 3) [µM] | IC50 ([4]; as Example 13, Table 7) [µg/mL] | Sub-acute toxicity ([6]; 50 mg/Kg) | Sub-acute toxicity ([6]; 100 mg/Kg) | other results
1 | COc1cc([C@@H]2c3cc4c(cc3[C@@H](O[C@@H]3O[C@@H]5CO[C@@H](C)O[C@H]5[C@H](O)[C@H]3O)[C@H]3COC(=O)[C@H]23)OCO4)cc(OC)c1O [Etoposide, etoposide, reference compound] | >5.0 |  |  |  |  |  | 
2 | Cc1[nH]c2ccccc2c1-c1nc2c3ccccc3c3ccccc3c2[nH]1 [Compound 13, reference compound] |  | unable to cleave DNA |  |  |  |  | effect of exogenous metals on activity of the negative control ([2]; compound 13 25 μM): None of the metals had any effect; also recorded: Copper had no effect on growth inhibition
3 | Cc1[nH]c2ccc(Cl)cc2c1-c1nc2c3cccnc3c3ncccc3c2[nH]1 [Compound 5] |  |  | 0.35 | 0.35 |  |  | effect of exogenous copper on growth inhibition ([2]; 25 μM CuSO4, low concentrations of compound (less than 2 μM)): copper impaired the activity only at low concentrations; effect of exogenous zinc on growth inhibition ([2]; ZnCl2 (100 μM)): zinc impaired the growth inhibitory activities; tumour size and weight [5]: able to decrease the size (FIG. 16A) and weight (FIG. 16B) of tumours
4 | COc1cccc2c1C(=O)c1c(O)c3c(c(O)c1C2=O)C[C@@](O)(C(=O)CO)C[C@@H]3O[C@H]1C[C@H](N)[C@H](O)[C@H](C)O1 [Doxorubicin, doxorubicin, reference compound] | 5.6 |  |  |  |  |  | 
5 | c1ccc2c(-c3nc4c5cccnc5c5ncccc5c4[nH]3)c(CN3CCCCC3)[nH]c2c1 [Compound 12] |  | capable of cleaving DNA | 0.28 | 0.28 | − | + | 
6 | c1ccc2c(-c3nc4c5cccnc5c5ncccc5c4[nH]3)c(-c3ccncc3)[nH]c2c1 [Compound 11] |  |  | > 2.5 | > 2.5 | − | + | 
